# From patent US20050288347A1, “Certain triazole-based compounds, compositions, and uses thereof” (priority 2004, published 2005)
# Entries after “also recorded” stand apart in the source; their conditions may differ.
# Molecular target: protein kinase
# Experiment: HTS ATP-utilizing enzyme assay, off-chip mobility-shift format (Caliper HTS 250)
# Assay type: biochemical, human
# Details: kinase(s) for which the compound exhibits protein kinase inhibitory activity; test compound 10 μM; active = greater than three-sigma from the mean activity of inactive compounds
# Summary of the method: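 Kinase reactions ran 2.5 h at 20 to 22 °C with test compound at 10 μM, in a HEPES pH 7.5 master buffer containing Triton X-100 and BSA. Peptide substrate and phosphorylated product separated by mobility shift; inhibition normalized to DMSO (0%) and EDTA (100%) controls, with three-sigma thresholds for hits.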
row,Compound,Kinase
1,Cn1c(SCC(=O)c2ccc3c(c2)OCCO3)nnc1-c1ccc(S(=O)(=O)N2CCOCC2)cc1,AURORA-A
2,O=C(CSc1nnc(-c2cccc(C(F)(F)F)c2)[nH]1)c1ccc2c(c1)OCCO2,AURORA-A; also recorded: GSK3-α; also recorded: FLT-3
3,O=C(CSc1nnc(-c2ccc(O)cc2)n1CC1CCCO1)c1ccc2c(c1)OCCO2 (centres unmarked),GSK3-β and SGK1
4,Cn1c(SCC(=O)c2ccc3c(c2)OCCO3)nnc1-c1ccc(O)cc1,GSK3-β and GSK3-α and MSK1
5,CCCn1c(SCC(=O)c2ccc3c(c2)OCCO3)nnc1-c1ccco1,DYRK2
6,Cc1cccc(-c2nnc(SCC(=O)c3ccc4c(c3)OCCO4)[nH]2)c1,FLT-3; also recorded: GSK3-α; also recorded: AURORA-A
7,Cc1nnc(SCC(=O)c2ccc3c(c2)OCCO3)[nH]1,GSK3-α; also recorded: GSK3-β; also recorded: DYRK2
8,CCn1c(SCC(=O)c2cc(OC)ccc2OC)nnc1C(C)C,PDGFRR-α and FLT-3 and FYN
9,O=C(CSc1nnc(CNc2ccc(F)cc2)n1CC1CCCO1)N1CCCc2ccccc21 (centres unmarked),AKT1
10,Cn1c(SCC(=O)c2ccc(O)c(O)c2)nnc1-c1ccccc1,MSK2 and FYN and HCK
11,CCOc1ccc(Nc2nnc(SCC(=O)c3cc(C(C)(C)C)c(O)c(C(C)(C)C)c3)n2-c2ccc(OCC)cc2)cc1,FYN
12,Cc1ccc(-n2c(CNc3cccc(Cl)c3)nnc2SCC(=O)c2ccc(Cl)cc2)cc1,LYNA
13,O=C(CSc1nnc(-c2cc3ccccc3cc2O)n1Cc1ccco1)c1ccc(F)cc1,AURORA-A
14,Cn1c(SCC(=O)N2CCCCCC2)nnc1-c1ccc(S(=O)(=O)N2CCCC2)cc1,c-TAK1
15,CCn1c(SCC(=O)Nc2cc(OC)c(OC)cc2C(=O)O)nnc1-c1ccc(O)cc1,AURORA-A
16,COCCn1c(SCC(=O)c2ccccc2)nnc1-c1ccc(OC)cc1,AKT1
17,O=C(CSc1nnc(-c2ccc(O)cc2)n1-c1cccc(Cl)c1)Nc1ccccc1,GSK3-α
18,O=C(CSc1nnc(CCN2CCOCC2)n1-c1ccc(F)cc1)c1ccccc1,FYN
19,COc1ccc(C(=O)CSc2nnc(-c3cc4ccccc4cc3O)n2Cc2ccco2)cc1,AURORA-A
20,O=C(CSc1nnc(-c2ccc(O)cc2)n1Cc1ccco1)Nc1nc2c(s1)CCCC2,GSK3-β; also recorded: GSK3-α
21,NC(=O)CSc1nnc(-c2ccc(O)cc2)n1Cc1ccco1,GSK3-β; also recorded: GSK3-α
22,O=C(CSc1nnc(-c2ccc(O)cc2)n1Cc1ccco1)c1ccccc1,GSK3-β and GSK3-α and MSK2
23,C=CCn1c(SCC(=O)NCCCN2CCOCC2)nnc1-c1sc2ccccc2c1Cl,LYNA
24,C=CCn1c(CSc2nc3ccccc3s2)nnc1SCC(=O)NCCO,HCK
25,O=C(CSc1nnc(-c2ccc(O)cc2)n1Cc1ccccc1)c1ccccc1,GSK3-α
26,CCn1c(SCC(=O)c2cccs2)nnc1-c1ccc(O)cc1,MSK1 and MSK2 and GSK3-β

row,Compound,Kinase
1,CCn1c(SCC(=O)Nc2ccccc2)nnc1-c1ccc(O)cc1,CHEK2
2,CCn1c(SCC(=O)N(c2ccccc2)c2ccccc2)nnc1-c1ccc(O)cc1,SRC
3,CCn1c(SCC(=O)c2ccc(OC)cc2)nnc1-c1ccncc1,PKA and MAPKAPK-2 and MSK1
4,COc1ccc(OC)c(C(=O)CSc2nnc(-c3ccccc3N)n2C)c1,PDGFRR-α
5,COc1ccccc1-n1c(SCC(=O)Nc2ccc3sc(C)nc3c2)nnc1-c1ccccc1O,CDK1
6,COCCn1c(SCC(=O)N2c3ccccc3Sc3ccccc32)nnc1-c1cc2ccccc2cc1O,DAPK1
7,CCn1c(SCC(=O)c2ccc(C)cc2)nnc1-c1ccc(S(=O)(=O)N2CCCCCC2)cc1,AURORA-A
8,COc1ccc(-n2c(SC(C)C(=O)Nc3ccccc3)nnc2-c2ccc(O)cc2)cc1 (centres unmarked),GSK3-α and AKT1
9,Cc1cc(NC(=O)CSc2nnc(-c3ccc(O)cc3)n2C)no1,GSK3-β; also recorded: GSK3-α
10,Cn1c(SCC(=O)c2ccccc2)nnc1-c1ccc(O)cc1,GSK3-β and GSK3-α and MSK1
11,O=C(CSc1nnc(-c2ccc(O)cc2)n1-c1ccccc1)c1ccccc1,GSK3-α
12,COc1ccccc1-n1c(CNc2c(C)cccc2C)nnc1SCC(=O)Nc1cccc(O)c1,CHEK2
13,CCOc1ccc(NCc2nnc(SCC(=O)NCC3CCCO3)n2-c2ccccc2OC)cc1 (centres unmarked),FYN
14,COc1ccc(OCc2nnc(SCC(=O)c3ccccc3)n2C)cc1,PAK2
15,O=C(CSc1nnc(CSc2nc3ccccc3s2)n1-c1ccccc1)NCCO,FYN
16,O=C(CSc1nnc(CSc2nc3ccccc3s2)n1-c1ccccc1)NCCN1CCOCC1,CSK
17,O=C(CSc1nnc(CSc2nc3ccccc3s2)n1-c1ccccc1)N1CCN(CCO)CC1,HCK
18,COc1ccc(C(=O)CSc2nnc(CNc3ccc(C)cc3)n2-c2ccccc2)cc1,CHEK2 and SYK
19,O=C(CSc1nnc(-c2ccncc2)n1CC1CCCO1)Nc1nccs1 (centres unmarked),GSK3-β and GSK3-α and ABL1
20,O=C(CSc1nnc(Cc2ccccc2)[nH]1)c1ccc2c(c1)OCCO2,GSK3-α
21,COc1ccc(C(=O)CSc2nnc(C3CCCCC3)n2C)cc1,SYK
22,Cn1c(SCC(=O)c2ccc3c(c2)OCCO3)nnc1C1CC1,AURORA-A and FYN
23,CC(C)(C)c1nnc(SCC(=O)c2ccc3c(c2)OCCO3)[nH]1,DYRK2; also recorded: GSK3-α
24,O=C(CSc1nnc(-c2cccnc2)n1-c1ccccc1)CC(=O)Nc1ccccc1,AURORA-A
25,Cc1ccc(-n2c(SCC(=O)CC(=O)Nc3ccccc3)nnc2-c2cccnc2)cc1,AURORA-A
26,O=C(CSc1nnc(-c2cccnc2)n1Cc1ccccc1)CC(=O)Nc1ccccc1,AURORA-A

row,Compound,Kinase
1,COc1ccc(NCc2nnc(S)n2-c2ccc(OC)cc2)cc1,PDGFRR-α; also recorded: AURORA-A; also recorded: GSK3-α
2,Cn1c(SCC(=O)CC(=O)Nc2ccccc2)nnc1-c1ccc(O)cc1,AURORA-A
3,O=C(CSc1nnc(-c2ccc(O)cc2)n1-c1ccccc1)CC(=O)Nc1ccccc1,AURORA-A; also recorded: GSK3-α
4,CCn1c(S)nnc1-c1ccc(S(=O)(=O)N2CCN(C)CC2)cc1,GSK3-α; also recorded: GSK3-β
5,Cc1ccc(NCc2nnc(S)n2CC2CCCO2)cc1Cl (centres unmarked),GSK3-β; also recorded: GSK3-α
6,Cc1ccc(-n2c(S)nnc2CNc2ccc(C)c(Cl)c2)cc1,GSK3-α; also recorded: AURORA-A
7,COc1ccc(NC(=O)CSc2nnc(-c3ccccc3O)n2-c2ccc(C)cc2)c(OC)c1,MSK2 and CDK1
8,COc1ccc(-n2c(SC(C)C(=O)Nc3c(C)cccc3C)nnc2-c2ccc(O)cc2)cc1 (centres unmarked),AKT1
9,CCn1c(SCC(=O)Nc2cccc(C(C)=O)c2)nnc1-c1ccc(O)cc1,GSK3-α
10,COc1ccc(-n2c(SCC(=O)Nc3cccc(C(C)=O)c3)nnc2-c2ccc(O)cc2)cc1,GSK3-β; also recorded: GSK3-α
11,CC(=O)c1cccc(NC(=O)CSc2nnc(-c3ccc(O)cc3)n2C)c1,GSK3-β; also recorded: GSK3-α; also recorded: CHEK2
12,COc1cc(C(=O)CSc2nnc(-c3ccc(O)cc3)n2Cc2ccco2)ccc1NC(C)=O,GSK3-α
13,CCC(=O)Nc1ccc(C(=O)CSc2nnc(-c3ccc(O)cc3)n2Cc2ccco2)cc1OC,GSK3-β; also recorded: GSK3-α
14,CC(=O)c1ccc(NC(=O)CSc2nnc(-c3ccc(O)cc3)n2C)cc1,AKT1
15,CCc1nnc(NC(=O)CSc2nnc(-c3ccc(S(=O)(=O)N4CCN(C)CC4)cc3)n2CC)s1,CHEK2
16,CCc1nnc(NC(=O)CSc2nnc(-c3ccc(O)cc3)n2-c2ccc(OC)cc2)s1,GSK3-β and GSK3-α and AKT1
17,CCOc1ccc2nc(NC(=O)CSc3nnc(-c4ccncc4)n3CC3CCCO3)sc2c1 (centres unmarked),PDGFRR-α and GSK3-α and ABL1
18,O=C(CSc1nnc(-c2ccc(O)cc2)n1-c1cccc(Cl)c1)NCc1ccccc1,GSK3-α
19,O=C(CSc1nnc(-c2ccc([N+](=O)[O-])cc2)n1/C=C/CN1CCOCC1)N1CCOCC1,FYN
20,COCCCn1c(SCC(=O)OCc2ccccc2)nnc1-c1ccc(OC)cc1,CDK2-cyclinE and MSK1
21,COc1ccccc1-n1c(SCC(=O)OCc2ccccc2)nnc1-c1ccco1,GSK3-α; also recorded: AURORA-A
22,COc1ccc(-c2nnc(SCC(=O)OC3CCCCCC3)n2-c2cccc(C(F)(F)F)c2)cc1,FLT-3
23,CCOC(=O)CSc1nnc(-c2ccccc2O)n1-c1ccccc1OC,AURORA-A
24,COC(=O)c1ccccc1NC(=O)CSc1nnc(-c2ccc(O)cc2)n1Cc1ccco1,GSK3-β and MSK2 and GSK3-α
25,COC(=O)c1ccccc1NC(=O)CSc1nnc(-c2ccc(O)cc2)n1Cc1ccccc1,AKT3 and GSK3-β and GSK3-α
26,COC(=O)c1ccccc1NC(=O)CSc1nnc(-c2ccc(O)cc2)n1C,GSK3-β; also recorded: GSK3-α

# Same assay, conditions: test compound 10 μM; active = activity greater than three-sigma from the mean of the predominately inactive population for that enzyme
row,Compound,protein kinase against which the compound exhibits inhibitory activity (Table 3)
1,COc1ccccc1-n1c(SCC(=O)Nc2cccc(NC(=O)C3CCCO3)c2)nnc1-c1ccccc1O (centres unmarked),AURORA-A
2,O=C(CSc1nnc(-c2ccc(O)cc2)n1-c1ccccc1)NN(Br)C(=O)c1ccccc1,AURORA-A
3,COc1ccccc1-n1c(SCC(=O)NN(O)C(=O)c2ccccc2)nnc1-c1ccccc1O,FYN and FLT-3 and SYK
4,COc1ccc(C(=O)NNC(=O)CSc2nnc(-c3ccc(O)cc3)n2Cc2ccco2)cc1,GSK3-β; also recorded: AURORA-A; also recorded: PDGFRR-α
5,O=C(CSc1nnc(-c2ccccc2O)n1Cc1ccccc1)NNC(=O)c1ccccc1O,FYN and HCK
6,CCn1c(SCC(=O)NNC(=O)c2ccc(OC)cc2)nnc1-c1ccc(O)cc1,GSK3-a; also recorded: AURORA-A
7,Cc1cc(C)nc(SCc2nnc(SCC(=O)NNC(=O)c3ccccc3O)n2-c2ccccc2)n1,FYN and SRC and HCK
8,Cc1cc(C)nc(SCc2nnc(SCC(=O)NNC(=O)c3ccccc3O)n2C)n1,FYN and SRC and FLT-3
